Assay results as given in patent publication US20180344725A1, “QUINOLONE CHALCONE COMPOUNDS AND USES THEREOF” (priority 2015, published 2018).

Experiments:
MCF-7 = assay: SRB-based cytotoxicity assay; format: cell-based, human; details: Homo sapiens, MCF7; MCF-7; SRB; Table 2
Protocol: (§1) For (anti)proliferation assays, 4,000-5,000 cells/well of the 96-well clustered dish were incubated for 16 hours, as described previously (Hu et al., 2008; Skehan et al., 1990). After 16 hours, culture medium was replaced with fresh medium containing different dilutions of test compounds dissolved in DMSO. Some wells were treated with 100 μl of 10% trichloroacetic acid (TCA) as a negative control and sham (medium with dimethyl sulfoxide; DMSO) treated cells were used as a positive control. After 72 hours post-incubation, medium was removed and cells were fixed with 10% TCA at 4° C. for 1 hour. TCA was removed and cells were washed with cold tap water, and plate was air-dried, followed by addition of 50 μl of 0.4% SRB staining solution to each well. After 30 minutes incubation, SRB staining solution was removed. Cells were washed with 1% acetic acid solution, and then washed with tap water to remove unbound staining solution, followed by air-drying. 200 μl of 10 mM (pH10.5) trizma base buffer was added to each well to solubilise macromolecules. SRB stained macromolecules were determined at a 540 nm wavelength using an automated plate reader (Synergy H4 Hybrid Multi-Mode Microplate Reader, BioTek, Winooski, Vt.). Cell growth (inhibition) was calculated by the following formula:
(§2) % cells proliferation=[(AT−CT)/(ST−CT)]×100
(§3) wherein AT=absorbance of treated cells, CT=absorbance of negative control cells, and ST=absorbance of sham treated cells. IC50 values were calculated from sigmoidal dose-response curves generated by two independent biological replicates, with quadruplicate in each set by using Graph Pad Prism v.5.04 software. […] The combinational index (CI) was calculated as described previously (Chou 2006). If the CI values were less than, equal to or more than 1, it indicates a synergistic, additive or antagonistic effect respectively (Chou 2006). CI values were determined from four independent experiments.

MDA-MB-231 = assay: SRB-based cytotoxicity assay; format: cell-based, human; details: Homo sapiens; MDA-MB-231; SRB; Table 2
Protocol: as §1, §2, §3

MDA-MB-468 = assay: SRB-based cytotoxicity assay; format: cell-based, human; details: Homo sapiens; MDA-MB-468; SRB; Table 2
Protocol: as §1, §2, §3

[1] = tested on: MDA-MB-231 human metastatic breast cancer cells; assay: Anti-tumor activity in xenograft mice; format: in vivo; details: Tax 10 mg/kg I.V. once/week, CTR 30 mg/kg I.P. every 3 days, or Tax 5 + CTR 15 mg/kg once/week
Protocol: Five-week old female CD-1 and ATH490 (strain code 490) athymic nude mice were purchased from Charles River (Quebec, Canada). The MDA-MB-231 human metastatic breast cancer cells were obtained from the American Tissue Culture Collection (ATCC, Manassas, Va., USA). Cells were maintained under humidified conditions at 37° C. and 5% CO2 in DMEM high glucose medium (ATCC) supplemented with 10% fetal bovine serum and antibiotics.
For paclitaxel treatments, 40 mg/ml stock solution of paclitaxel (Sigma, MO) was prepared in DMSO. Just before administration to mice, the paclitaxel stock solution was diluted ten-fold in a buffer containing 10% DMSO, 12.5% Cremophor, 12.5% ethanol, and 65% saline-based diluent (0.9% sodium chloride, 5% polyethylene glycol, and 0.5% tween-80) which is defined as vehicle (Huang et al., 2006). Alanine transaminase (ALT, SUP6001-c)/Aspartate transaminase (AST, SUP6002-c) color endpoint assay kits were purchased from ID Labs Biotechnology (London, Ontario, Canada). Elevation of ALT and AST levels in serum samples was used as an indicator of liver damage/injury.
To determine the anti-tumor activity of CTR compounds in animals, a xenograft model of human breast cancer cells in athymic nude mice was established. Exponentially growing MDA-MB-231 metastatic breast cancer cells were harvested and counted for inoculation into mice. Each mouse was subcutaneously injected at the flank with 10×10^6 cells in 0.2 ml ice cold 1×PBS. When tumor size reached 4-5 mm in diameter (n=4-5 per group), mice were randomly assigned into several groups as described herein.
Animals were monitored for food and water consumption every day, and their body weights and tumor volumes were measured twice per week. Tumor volumes were measured with a digital caliper and were determined by using the following formula: ½ length×width^2. Blood samples were collected via cardiac puncture and processed further for ALT and AST measurements. The animals were then immediately euthanized by carbon dioxide. Tumors and vital organs (spleen, kidney, liver and lung) were collected and fixed in 10% buffered formalin at 4° C. overnight before being processed for paraffin embedding. The paraffin-embedded blocks were then cut into 4-5 μm thick sections. Each section of tumors and organs was stained with hematoxylin and eosin (H&E).

184B5 = assay: SRB-based cytotoxicity assay; format: cell-based; details: Homo sapiens; 184B5 non-cancer; SRB; Table 2
Protocol: as §1, §2, §3

K562 = assay: SRB-based cytotoxicity assay; format: cell-based; details: Homo sapiens, Table 2
Protocol: as §1, §2, §3

KB-C-2 = assay: SRB-based cytotoxicity assay, single and combination with paclitaxel; format: cell-based, human; details: KB-C-2 versus KB-C-1
Protocol: (§4) 1845B5 and MCF-10A non-cancer breast cell lines were cultured in DME/F12 medium supplemented with 10% fetal bovine serum, antibiotics and growth factors. […] The human small cell lung carcinoma H69 cell line and its multidrug-resistant MRP1-overexpressing isogenic H69AR cell line were purchased from ATCC. […] H69 cells grow as large multi-cell aggregates, making it difficult to accurately count cell numbers. […] The IL-6 dependent bortezomib-resistant ANBL6-BR cell line was further supplemented with 1 ng/ml of IL-6. The MCF10AT1 and MCF10CA1a cell lines are isogenic to the MCF10A cell line, and obtained from Dr. Valerie Weaver at the Center for Bioengineering and Tissue Regeneration, UCSF, CA, USA. […] The drug-resistant cells were cultured in the absence of drug for at least one passage before carrying out experiments. All cells were maintained in a humidified incubator at 37° C. […] Cell line authentication was performed using short tandem repeat (STR) profiling. […] Some wells were treated with 100 μl of 10% trichloroacetic acid (TCA) as a negative control and sham (medium with dimethyl sulfoxide; DMSO) treated cells were used as a positive control. […] TCA was removed and cells were washed with cold tap water, and plate was air-dried, followed by addition of 50 μl of 0.4% SRB staining solution to each well. After 30 minutes incubation, SRB staining solution was removed. Cells were washed with 1% acetic acid solution, and then washed with tap water to remove unbound staining solution, followed by air-drying. 200 μl of 10 mM (pH10.5) trizma base buffer was added to each well to solubilise macromolecules. […] Cell growth (inhibition) was calculated by the following formula: % cells proliferation=[(AT-CT)/(ST-CT)]×100 wherein AT=absorbance of treated cells, CT=absorbance of negative control cells, and ST=absorbance of sham treated cells. […] CI values were determined from four independent experiments.

KB-C-1 = assay: SRB-based cytotoxicity assay; format: cell-based; details: Homo sapiens, KBC-1; KB-C-1, multidrug naïve
Protocol: as §4

H69AR = assay: SRB-based cytotoxicity assay; format: cell-based, human; details: H69AR versus SW-1271
Protocol: as §4

Row | Compound | IC50 (MCF-7) | IC50 (MDA-MB-231) | IC50 (MDA-MB-468) | tumor size (volume) ([1]; Day 0) | tumor size (volume) ([1]; Day 6) | tumor size (volume) ([1]; Day 14) | tumor size (volume) ([1]; Day 17) | tumor size (volume) ([1]; Day 20) | tumor size (volume) ([1]; Day 24) | tumor size (volume) ([1]; Day 27) | tumor size (volume) ([1]; Day 30) | IC50 (184B5) | IC50 (K562) | Resistance (fold) (KB-C-2) | IC50 (KB-C-1) | Resistance (fold) (H69AR)
1 | COc1ccccc1C(=O)/C=C/c1cc2cc(C)ccc2[nH]c1=O [CTR-18, (E)-3-(3-(2-Methoxyphenyl)-3-oxoprop-1-enyl)-6-methylquinolin-2(1H)-one] | 120 nM | 930 nM | 80 nM | 92.51 mm^3 | 111.09 mm^3 | 138.10 mm^3 | 145.48 mm^3 | 166.84 mm^3 | 143.78 mm^3 | 141.52 mm^3 | 253.37 mm^3 | 3890 nM | 210 ± 20 nM |  |  | 
2 | COc1ccc2cc(/C=C/C(=O)c3ccccc3OC)c(=O)[nH]c2c1 [CTR-19, (E)-7-Methoxy-3-(3-(2-methoxyphenyl)-3-oxoprop-1-enyl) quinolin-2(1H)-one] | 1930 nM | 5110 nM | 1910 nM | 92.51 mm^3 | 84.79 mm^3 | 99.68 mm^3 | 92.27 mm^3 | 115.39 mm^3 | 124.76 mm^3 | 143.62 mm^3 | 200.77 mm^3 | 3940 nM | 950 ± 650 nM |  |  | 
3 | CC[C@]1(O)C[C@@H]2CN(CCc3c([nH]c4ccccc34)[C@@](C(=O)OC)(c3cc4c(cc3OC)N(C)[C@H]3[C@@](O)(C(=O)OC)[C@H](OC(C)=O)[C@]5(CC)C=CCN6CC[C@]43[C@@H]65)C2)C1 [Vinblastine, reference compound] |  |  |  |  |  |  |  |  |  |  |  |  |  | 15.20 fold | 0.61 ± 0.09 nM | 5.82 fold
